Results taken from the CheMixHub viscosity set.
Values joined by “and” are separate entries in the source; they are usually repeats but may differ in a detail not shown here. Identical values can stand only once.

Experiment: xn = mol fraction of the nth substance listed

C1COCCO1 + O
Details | viscosity
303.15 K, 101.3 kPa, x2 = 0.2053 | 1.163 mPa·s
303.15 K, 101.3 kPa, x2 = 0.3758 | 1.322 mPa·s and 1.321 mPa·s
303.15 K, 101.3 kPa, x2 = 0.7952 | 1.738 mPa·s
303.15 K, 101.3 kPa, x2 = 0.8661 | 1.58 mPa·s and 1.579 mPa·s
303.15 K, 101.3 kPa, x2 = 0.9391 | 1.221 mPa·s
303.15 K, 101.3 kPa, x2 = 0.9742 | 0.9855 mPa·s and 0.9853 mPa·s
303.15 K, 101.33 kPa, x1 = 0.0222 | 0.959 mPa·s
303.15 K, 101.33 kPa, x1 = 0.0486 | 1.137 mPa·s
303.15 K, 101.33 kPa, x1 = 0.0806 | 1.332 mPa·s
303.15 K, 101.33 kPa, x1 = 0.12 | 1.521 mPa·s
303.15 K, 101.33 kPa, x1 = 0.143 | 1.608 mPa·s
303.15 K, 101.33 kPa, x1 = 0.17 | 1.674 mPa·s
303.15 K, 101.33 kPa, x1 = 0.2 | 1.726 mPa·s
303.15 K, 101.33 kPa, x1 = 0.235 | 1.75 mPa·s
303.15 K, 101.33 kPa, x1 = 0.25 | 1.749 mPa·s
303.15 K, 101.33 kPa, x1 = 0.275 | 1.74 mPa·s
303.15 K, 101.33 kPa, x1 = 0.323 | 1.704 mPa·s
303.15 K, 101.33 kPa, x1 = 0.334 | 1.685 mPa·s
303.15 K, 101.33 kPa, x1 = 0.38 | 1.634 mPa·s
303.15 K, 101.33 kPa, x1 = 0.45 | 1.538 mPa·s
303.15 K, 101.33 kPa, x1 = 0.5 | 1.46 mPa·s
303.15 K, 101.33 kPa, x1 = 0.537 | 1.417 mPa·s
303.15 K, 101.33 kPa, x1 = 0.648 | 1.282 mPa·s
303.15 K, 101.33 kPa, x1 = 0.716 | 1.215 mPa·s
303.15 K, 101.33 kPa, x1 = 0.795 | 1.153 mPa·s
303.15 K, 101.33 kPa, x1 = 0.846 | 1.125 mPa·s
303.15 K, 101.33 kPa, x1 = 0.918 | 1.098 mPa·s
308.15 K, 101.33 kPa, x1 = 0.0222 | 0.859 mPa·s
308.15 K, 101.33 kPa, x1 = 0.0486 | 1.014 mPa·s
308.15 K, 101.33 kPa, x1 = 0.0806 | 1.184 mPa·s
308.15 K, 101.33 kPa, x1 = 0.12 | 1.349 mPa·s
308.15 K, 101.33 kPa, x1 = 0.143 | 1.419 mPa·s
308.15 K, 101.33 kPa, x1 = 0.17 | 1.479 mPa·s
308.15 K, 101.33 kPa, x1 = 0.2 | 1.525 mPa·s
308.15 K, 101.33 kPa, x1 = 0.235 | 1.549 mPa·s
308.15 K, 101.33 kPa, x1 = 0.25 | 1.553 mPa·s
308.15 K, 101.33 kPa, x1 = 0.275 | 1.546 mPa·s
308.15 K, 101.33 kPa, x1 = 0.323 | 1.518 mPa·s
308.15 K, 101.33 kPa, x1 = 0.334 | 1.503 mPa·s
308.15 K, 101.33 kPa, x1 = 0.38 | 1.46 mPa·s
308.15 K, 101.33 kPa, x1 = 0.45 | 1.38 mPa·s
308.15 K, 101.33 kPa, x1 = 0.5 | 1.317 mPa·s
308.15 K, 101.33 kPa, x1 = 0.537 | 1.282 mPa·s
308.15 K, 101.33 kPa, x1 = 0.648 | 1.17 mPa·s
308.15 K, 101.33 kPa, x1 = 0.716 | 1.112 mPa·s
308.15 K, 101.33 kPa, x1 = 0.795 | 1.06 mPa·s
308.15 K, 101.33 kPa, x1 = 0.846 | 1.036 mPa·s
308.15 K, 101.33 kPa, x1 = 0.918 | 1.017 mPa·s
313.1 K, 101 kPa, x2 = 0.228 | 0.97 mPa·s
313.1 K, 101 kPa, x2 = 0.2741 | 0.989 mPa·s
313.1 K, 101 kPa, x2 = 0.4187 | 1.047 mPa·s
313.1 K, 101 kPa, x2 = 0.7038 | 1.368 mPa·s
313.1 K, 101 kPa, x2 = 0.8099 | 1.376 mPa·s
313.1 K, 101 kPa, x2 = 0.8346 | 1.32 mPa·s
313.1 K, 101 kPa, x2 = 0.8791 | 1.229 mPa·s
313.1 K, 101 kPa, x2 = 0.9194 | 1.083 mPa·s
313.1 K, 101 kPa, x2 = 0.9508 | 0.937 mPa·s
313.1 K, 101 kPa, x2 = 0.9786 | 0.786 mPa·s
313.15 K, 101.3 kPa, x2 = 0.0459 | 0.9391 mPa·s
313.15 K, 101.3 kPa, x2 = 0.09407 | 0.9443 mPa·s
313.15 K, 101.3 kPa, x2 = 0.2053 | 0.9839 mPa·s
313.15 K, 101.3 kPa, x2 = 0.3758 | 1.1 mPa·s
313.15 K, 101.3 kPa, x2 = 0.7952 | 1.377 mPa·s
313.15 K, 101.33 kPa, x1 = 0.0222 | 0.776 mPa·s
313.15 K, 101.33 kPa, x1 = 0.0486 | 0.914 mPa·s
313.15 K, 101.33 kPa, x1 = 0.0806 | 1.061 mPa·s
313.15 K, 101.33 kPa, x1 = 0.12 | 1.199 mPa·s
313.15 K, 101.33 kPa, x1 = 0.143 | 1.265 mPa·s
313.15 K, 101.33 kPa, x1 = 0.17 | 1.322 mPa·s
313.15 K, 101.33 kPa, x1 = 0.2 | 1.365 mPa·s
313.15 K, 101.33 kPa, x1 = 0.235 | 1.386 mPa·s
313.15 K, 101.33 kPa, x1 = 0.25 | 1.383 mPa·s
313.15 K, 101.33 kPa, x1 = 0.275 | 1.384 mPa·s
313.15 K, 101.33 kPa, x1 = 0.323 | 1.366 mPa·s
313.15 K, 101.33 kPa, x1 = 0.334 | 1.352 mPa·s
313.15 K, 101.33 kPa, x1 = 0.38 | 1.316 mPa·s
313.15 K, 101.33 kPa, x1 = 0.45 | 1.249 mPa·s
323.1 K, 101 kPa, x2 = 0.228 | 0.836 mPa·s
323.1 K, 101 kPa, x2 = 0.2741 | 0.85 mPa·s
323.1 K, 101 kPa, x2 = 0.4187 | 0.888 mPa·s
323.1 K, 101 kPa, x2 = 0.591 | 1.063 mPa·s
323.1 K, 101 kPa, x2 = 0.7038 | 1.123 mPa·s
323.1 K, 101 kPa, x2 = 0.8099 | 1.122 mPa·s
323.1 K, 101 kPa, x2 = 0.8346 | 1.078 mPa·s
323.1 K, 101 kPa, x2 = 0.8791 | 1.006 mPa·s
323.1 K, 101 kPa, x2 = 0.9194 | 0.889 mPa·s
323.1 K, 101 kPa, x2 = 0.9508 | 0.774 mPa·s
323.1 K, 101 kPa, x2 = 0.9786 | 0.652 mPa·s
